Data from ChEMBL document CHEMBL1201862, “PubChem BioAssay data set” (2004).
Calls of active or inactive are those of the source.

Columns and labels:
Streptococcus = assay: GAS UMAA2166 growth inhibition – luminescence, BacTiterGlo, counter-screen for streptokinase expression inhibitor project, dose response (AID 1915); type: functional, organism-based;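 also: potency for reduction of bacterial viability or growth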
Cryptococcus neoformans [1] = assay: Cryptococcus growth inhibition by alamar blue – cell lysis, cherry-picks, replicate tests, mechanism study for C. neoformans antifungal project, dose response (AID 686999); type: functional, organism-based
Cryptococcus neoformans [2] = assay: PubChem AID 686997; type: functional, organism-based
[3] = viability loss in HEK293T cells – cell-based, ATP luminescence, dry powder, set 3, cytotoxicity control, dose response (AID 743131); type: functional; conditions: HEK293
Streptokinase A = target: T1, Streptokinase A (Streptococcus pyogenes serotype M1, UniProt P10520); assay: viability-normalized secreted streptokinase activity reduction – plasminogen activation absorbance, OD405, dose response (AID 1914); type: functional, Streptococcus pyogenes M1 GAS;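 also: secreted streptokinase activity via plasminogen activation per viability signal from cell pellet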
T1 sequence (P10520 whole entry): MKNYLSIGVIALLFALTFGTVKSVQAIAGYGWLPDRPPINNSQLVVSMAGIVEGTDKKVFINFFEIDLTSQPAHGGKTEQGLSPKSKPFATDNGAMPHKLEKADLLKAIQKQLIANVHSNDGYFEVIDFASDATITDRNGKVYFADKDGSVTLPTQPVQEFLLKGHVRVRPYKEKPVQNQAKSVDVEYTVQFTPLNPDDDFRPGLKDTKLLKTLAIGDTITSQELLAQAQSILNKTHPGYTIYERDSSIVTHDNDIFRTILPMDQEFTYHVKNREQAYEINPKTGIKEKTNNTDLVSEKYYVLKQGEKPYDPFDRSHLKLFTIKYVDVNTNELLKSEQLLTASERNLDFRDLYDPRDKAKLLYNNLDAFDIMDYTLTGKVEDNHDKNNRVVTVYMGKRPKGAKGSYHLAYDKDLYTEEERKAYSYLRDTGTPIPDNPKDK

HeLa = assay: viability loss in HeLa cells – cell-based, ATP luminescence, cherry-pick samples, cytotoxicity control, dose response (AID 687004); type: functional; conditions: Homo sapiens
[4] = test system: Streptococcus sp. 'group A'; assay: Streptococcus pyogenes SK(-)GAS viability under kanamycin – luminescence, BacTiterGlo, confirmation, counter-screen for streptokinase expression inhibitor project, dose response (AID 1900); type: functional, organism-based
Large T antigen = Large T antigen (Simian virus 40, UniProt P03070); type: functional, Betapolyomavirus macacae;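 also: Confirmatory-stage PubChem screen for compounds that inhibit SV40 T antigen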
Chain of Large T antigen (P03070 whole entry): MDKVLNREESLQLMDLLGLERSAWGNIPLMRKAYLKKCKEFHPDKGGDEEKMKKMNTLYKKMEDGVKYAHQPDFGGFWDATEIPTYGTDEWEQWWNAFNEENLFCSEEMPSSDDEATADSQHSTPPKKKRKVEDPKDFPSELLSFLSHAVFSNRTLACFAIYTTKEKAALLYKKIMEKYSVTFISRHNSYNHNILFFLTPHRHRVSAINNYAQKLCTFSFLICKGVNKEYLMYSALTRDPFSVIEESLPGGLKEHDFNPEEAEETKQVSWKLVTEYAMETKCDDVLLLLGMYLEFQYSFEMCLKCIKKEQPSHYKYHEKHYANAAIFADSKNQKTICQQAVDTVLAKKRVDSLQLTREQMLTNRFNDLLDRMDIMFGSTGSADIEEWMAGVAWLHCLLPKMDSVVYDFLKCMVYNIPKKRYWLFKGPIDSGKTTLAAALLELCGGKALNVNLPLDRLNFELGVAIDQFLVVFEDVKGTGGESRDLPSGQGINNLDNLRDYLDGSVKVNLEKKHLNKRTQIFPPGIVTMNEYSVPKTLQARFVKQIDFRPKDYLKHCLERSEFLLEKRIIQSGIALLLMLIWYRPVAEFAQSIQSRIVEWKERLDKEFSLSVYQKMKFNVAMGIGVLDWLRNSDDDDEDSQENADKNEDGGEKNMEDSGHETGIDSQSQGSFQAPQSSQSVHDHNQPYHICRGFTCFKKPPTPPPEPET

[5] = target: E3 ubiquitin-protein ligase XIAP (Homo sapiens, UniProt P98170); assay: Counter Screen using XIAP-Bir3 for Chemical Antagonists of Bir1/2 domains of IAP-family anti-apoptotic proteins. [Related pubchem assays (depositor defined):AID1018, AID1449, AID1514, AID1638, AID1749, AID1750, AID488957, AID488963]
Chain of E3 ubiquitin-protein ligase XIAP (P98170 whole entry, the tested form may be a part): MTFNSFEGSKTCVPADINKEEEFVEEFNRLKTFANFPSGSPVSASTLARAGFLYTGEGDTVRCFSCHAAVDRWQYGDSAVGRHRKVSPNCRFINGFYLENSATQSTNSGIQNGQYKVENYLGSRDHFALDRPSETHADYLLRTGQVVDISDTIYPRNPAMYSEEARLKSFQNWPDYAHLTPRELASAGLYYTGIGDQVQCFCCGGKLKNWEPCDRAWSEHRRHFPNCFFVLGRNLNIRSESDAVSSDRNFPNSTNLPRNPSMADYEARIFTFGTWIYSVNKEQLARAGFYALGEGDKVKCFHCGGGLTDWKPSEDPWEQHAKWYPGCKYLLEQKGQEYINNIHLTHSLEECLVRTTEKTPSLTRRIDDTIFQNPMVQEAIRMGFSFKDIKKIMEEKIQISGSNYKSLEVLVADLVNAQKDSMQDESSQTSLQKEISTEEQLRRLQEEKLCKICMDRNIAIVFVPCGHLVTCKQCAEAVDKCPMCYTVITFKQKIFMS

Fibrinogen beta chain [6] = target: T2, Fibrinogen beta chain (Homo sapiens, UniProt P02675); assay: Fluorescence polarization-based biochemical high throughput dose response assay to identify inhibitors that disrupt the binding of a cyclic peptide (Tn7) to the fibrin proteolytic product D-Dimer and fragment E complex [DD(E )].
T2 sequence (P02675 whole entry, the tested form may be a part): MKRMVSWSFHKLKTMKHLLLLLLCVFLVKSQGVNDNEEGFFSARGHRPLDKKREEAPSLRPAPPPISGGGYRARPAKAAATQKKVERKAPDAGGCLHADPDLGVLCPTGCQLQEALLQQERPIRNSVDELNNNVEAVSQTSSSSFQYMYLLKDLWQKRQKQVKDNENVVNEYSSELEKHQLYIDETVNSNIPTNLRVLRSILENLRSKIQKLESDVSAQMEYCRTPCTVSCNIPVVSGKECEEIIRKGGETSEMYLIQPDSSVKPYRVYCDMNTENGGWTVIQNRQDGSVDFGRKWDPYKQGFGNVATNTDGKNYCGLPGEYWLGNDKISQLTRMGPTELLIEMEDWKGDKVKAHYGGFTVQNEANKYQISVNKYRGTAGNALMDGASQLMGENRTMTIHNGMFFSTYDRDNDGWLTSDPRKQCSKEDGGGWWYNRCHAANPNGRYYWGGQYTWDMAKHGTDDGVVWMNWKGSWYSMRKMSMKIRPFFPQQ

[7] = target: T3, Tyrosyl-DNA phosphodiesterase 2 (Homo sapiens, UniProt O95551); assay: potency against TDP2 phosphodiesterase activity – biochemical, epi absorbance, IC50, dose response (AID 743297)
T3 sequence (O95551 whole entry): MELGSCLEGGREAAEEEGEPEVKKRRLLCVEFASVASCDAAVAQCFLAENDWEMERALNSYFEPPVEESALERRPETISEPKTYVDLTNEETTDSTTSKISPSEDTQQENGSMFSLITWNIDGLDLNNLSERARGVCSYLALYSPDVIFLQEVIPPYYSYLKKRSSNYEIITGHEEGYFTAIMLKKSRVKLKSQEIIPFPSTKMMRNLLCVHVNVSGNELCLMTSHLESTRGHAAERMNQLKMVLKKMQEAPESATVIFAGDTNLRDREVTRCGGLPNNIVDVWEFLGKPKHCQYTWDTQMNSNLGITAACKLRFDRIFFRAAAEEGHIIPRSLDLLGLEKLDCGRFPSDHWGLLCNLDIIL

[8] = target: T4, Histone-lysine N-methyltransferase NSD2 (Homo sapiens, UniProt O96028); type: biochemical
T4 sequence (O96028 whole entry): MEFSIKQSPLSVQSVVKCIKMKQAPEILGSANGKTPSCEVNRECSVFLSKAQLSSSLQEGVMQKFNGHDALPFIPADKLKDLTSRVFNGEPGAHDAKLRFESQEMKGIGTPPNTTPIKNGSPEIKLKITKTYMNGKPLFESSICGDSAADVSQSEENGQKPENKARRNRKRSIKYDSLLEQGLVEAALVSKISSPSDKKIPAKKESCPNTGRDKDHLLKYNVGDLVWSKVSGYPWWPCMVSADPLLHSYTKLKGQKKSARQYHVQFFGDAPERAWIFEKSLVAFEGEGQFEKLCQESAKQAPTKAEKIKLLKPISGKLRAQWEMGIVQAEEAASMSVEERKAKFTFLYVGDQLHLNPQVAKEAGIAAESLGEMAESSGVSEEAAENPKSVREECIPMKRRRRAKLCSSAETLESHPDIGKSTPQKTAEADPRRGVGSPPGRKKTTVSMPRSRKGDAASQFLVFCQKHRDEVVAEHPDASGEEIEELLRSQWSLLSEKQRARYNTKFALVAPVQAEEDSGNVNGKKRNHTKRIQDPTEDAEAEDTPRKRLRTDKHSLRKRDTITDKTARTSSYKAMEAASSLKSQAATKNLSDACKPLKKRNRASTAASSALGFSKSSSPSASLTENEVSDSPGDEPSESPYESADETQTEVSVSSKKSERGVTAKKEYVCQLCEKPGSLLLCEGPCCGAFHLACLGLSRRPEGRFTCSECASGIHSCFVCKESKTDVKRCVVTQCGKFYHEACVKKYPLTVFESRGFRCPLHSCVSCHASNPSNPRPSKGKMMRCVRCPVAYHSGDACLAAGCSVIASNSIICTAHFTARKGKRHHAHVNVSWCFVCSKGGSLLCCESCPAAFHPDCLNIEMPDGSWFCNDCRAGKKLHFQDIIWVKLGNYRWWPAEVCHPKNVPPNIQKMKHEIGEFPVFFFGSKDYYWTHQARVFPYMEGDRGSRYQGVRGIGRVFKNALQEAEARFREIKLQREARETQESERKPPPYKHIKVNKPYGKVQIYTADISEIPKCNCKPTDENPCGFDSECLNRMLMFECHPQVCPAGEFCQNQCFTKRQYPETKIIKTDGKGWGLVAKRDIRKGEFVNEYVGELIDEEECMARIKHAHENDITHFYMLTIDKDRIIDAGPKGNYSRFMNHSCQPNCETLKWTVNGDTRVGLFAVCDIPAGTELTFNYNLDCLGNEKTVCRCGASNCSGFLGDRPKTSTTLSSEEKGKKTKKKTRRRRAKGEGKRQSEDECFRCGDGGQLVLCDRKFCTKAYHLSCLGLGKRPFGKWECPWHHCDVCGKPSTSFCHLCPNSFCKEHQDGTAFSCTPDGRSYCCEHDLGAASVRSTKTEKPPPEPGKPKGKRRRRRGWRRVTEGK

Fibrinogen beta chain [9] = target: T2, Fibrinogen beta chain; assay: Fluorescence polarization-based biochemical high throughput dose response assay to identify inhibitors that disrupt the binding of a cyclic peptide (Tn6) to the fibrin proteolytic product D-Dimer and fragment E complex [DD(E )].
[10] = target: T5, RNA-binding protein pos-1 (Caenorhabditis elegans, UniProt G5EF15); assay: disruptors of C. elegans POS-1 RNA interaction – biochemical, fluorescence polarization, dose response (AID 1964);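 also: purified POS-1 fused to maltose binding protein made in E. coli; potency of compounds blocking POS-1 binding to fluorescent RNA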
T5 sequence (G5EF15 whole entry): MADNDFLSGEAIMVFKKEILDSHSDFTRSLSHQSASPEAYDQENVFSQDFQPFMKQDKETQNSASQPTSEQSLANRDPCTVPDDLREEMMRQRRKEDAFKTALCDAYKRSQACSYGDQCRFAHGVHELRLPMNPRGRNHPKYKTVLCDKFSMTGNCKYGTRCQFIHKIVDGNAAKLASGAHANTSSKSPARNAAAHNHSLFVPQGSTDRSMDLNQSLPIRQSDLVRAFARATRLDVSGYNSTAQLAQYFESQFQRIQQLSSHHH

[11] = target: Induced myeloid leukemia cell differentiation protein Mcl-1 (Homo sapiens, UniProt Q07820); type: functional
Chain of Induced myeloid leukemia cell differentiation protein Mcl-1 (Q07820 whole entry): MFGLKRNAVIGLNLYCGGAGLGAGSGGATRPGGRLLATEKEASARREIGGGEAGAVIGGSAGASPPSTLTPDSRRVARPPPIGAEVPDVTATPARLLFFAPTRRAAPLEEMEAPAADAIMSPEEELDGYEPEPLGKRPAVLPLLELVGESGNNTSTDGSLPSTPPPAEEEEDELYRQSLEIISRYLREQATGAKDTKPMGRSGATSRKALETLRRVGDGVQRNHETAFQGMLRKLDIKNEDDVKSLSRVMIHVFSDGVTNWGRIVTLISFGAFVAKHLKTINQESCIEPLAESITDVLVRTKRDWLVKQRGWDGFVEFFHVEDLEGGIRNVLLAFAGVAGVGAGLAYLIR

[12] = target: Bifunctional protein GlmU (Mycobacterium tuberculosis, UniProt P9WMN3); assay: Inhibitors of Mycobacterial Glucosamine-1-phosphate acetyl transferase (GlmU). Secondary screen.; parameters: species or system Mycobacterium tuberculosis H37Rv
Chain of Bifunctional protein GlmU (P9WMN3 whole entry): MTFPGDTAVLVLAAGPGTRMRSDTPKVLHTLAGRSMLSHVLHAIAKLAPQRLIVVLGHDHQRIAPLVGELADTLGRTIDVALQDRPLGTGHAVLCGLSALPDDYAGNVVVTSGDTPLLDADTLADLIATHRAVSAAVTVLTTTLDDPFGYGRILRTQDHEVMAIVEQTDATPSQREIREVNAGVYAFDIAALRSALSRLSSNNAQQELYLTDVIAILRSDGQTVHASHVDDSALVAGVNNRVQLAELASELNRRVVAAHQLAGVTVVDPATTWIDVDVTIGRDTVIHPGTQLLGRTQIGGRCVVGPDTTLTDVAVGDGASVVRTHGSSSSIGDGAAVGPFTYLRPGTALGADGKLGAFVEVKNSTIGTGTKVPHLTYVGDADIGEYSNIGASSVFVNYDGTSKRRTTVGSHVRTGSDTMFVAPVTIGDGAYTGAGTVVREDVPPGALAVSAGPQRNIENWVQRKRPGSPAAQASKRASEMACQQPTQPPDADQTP

[13] = target: T6, Zinc finger protein mex-5 (Caenorhabditis elegans, UniProt Q9XUB2); assay: potency of MEX-5 RNA-binding blockers – biochemical, C. elegans, fluorescence polarization, dose response (AID 1960)
T6 sequence (Q9XUB2 whole entry): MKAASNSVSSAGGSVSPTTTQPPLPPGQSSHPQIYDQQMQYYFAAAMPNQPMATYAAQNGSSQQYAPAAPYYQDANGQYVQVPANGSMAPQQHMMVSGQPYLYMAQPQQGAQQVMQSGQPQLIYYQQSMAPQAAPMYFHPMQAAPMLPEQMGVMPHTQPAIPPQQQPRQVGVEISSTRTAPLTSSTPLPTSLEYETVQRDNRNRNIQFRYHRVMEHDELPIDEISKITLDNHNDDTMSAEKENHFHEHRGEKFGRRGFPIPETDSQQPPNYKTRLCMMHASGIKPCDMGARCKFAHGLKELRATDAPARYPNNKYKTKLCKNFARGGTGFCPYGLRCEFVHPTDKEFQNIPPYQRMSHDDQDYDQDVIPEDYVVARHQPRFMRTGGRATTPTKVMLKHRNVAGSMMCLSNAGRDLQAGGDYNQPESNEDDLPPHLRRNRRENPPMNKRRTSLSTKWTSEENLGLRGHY

[14] = target: T7, Tyrosine-protein phosphatase non-receptor type 7 (Homo sapiens, UniProt P35236); assay: HePTP tyrosine phosphatase activity blockers – biochemical, absorbance, leukemia target, primary screen (AID 521); type: functional
T7 sequence (P35236 whole entry): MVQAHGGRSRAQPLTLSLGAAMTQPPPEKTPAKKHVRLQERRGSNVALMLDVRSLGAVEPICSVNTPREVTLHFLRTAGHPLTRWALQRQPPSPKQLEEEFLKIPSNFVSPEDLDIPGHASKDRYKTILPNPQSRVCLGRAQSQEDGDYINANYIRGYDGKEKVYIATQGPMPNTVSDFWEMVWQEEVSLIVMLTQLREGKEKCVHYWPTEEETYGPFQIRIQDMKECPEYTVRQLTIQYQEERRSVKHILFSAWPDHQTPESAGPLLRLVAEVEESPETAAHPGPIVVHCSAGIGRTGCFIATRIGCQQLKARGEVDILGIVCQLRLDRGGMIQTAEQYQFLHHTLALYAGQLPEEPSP

ELAV-like protein 1 = ELAV-like protein 1 (Homo sapiens, UniProt Q15717); assay: Identify HuR specific inhibitors.; type: functional
Chain of ELAV-like protein 1 (Q15717 whole entry): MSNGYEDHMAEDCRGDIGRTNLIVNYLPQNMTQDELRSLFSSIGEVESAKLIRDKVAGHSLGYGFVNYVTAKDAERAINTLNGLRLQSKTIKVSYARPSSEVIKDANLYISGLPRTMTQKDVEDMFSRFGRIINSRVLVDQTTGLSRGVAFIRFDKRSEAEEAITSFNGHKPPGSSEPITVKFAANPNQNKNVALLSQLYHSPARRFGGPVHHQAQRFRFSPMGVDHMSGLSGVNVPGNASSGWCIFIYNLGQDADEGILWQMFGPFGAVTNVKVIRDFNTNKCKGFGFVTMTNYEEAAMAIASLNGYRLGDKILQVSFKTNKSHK

## Cc1ccc(OCCn2c(S)nc3ccccc32)c(C(C)C)c1
Streptococcus
  EC50: 17.2 µM (active)
Cryptococcus neoformans [1]
  AC50: 11.2 µM (active)
Cryptococcus neoformans [2]
  AC50: 20.7 µM (active)
[3]
  AC50: 10.3 µM (active)
Streptokinase A
  EC50: 15.2 µM (active)
HeLa
  AC50: 37.9 µM (active)
[4]
  EC50: 2.73 µM (active)

## O=C(O)CCCNc1cc(N2CCN(C(=O)c3ccco3)CC2)c2noc3c2c1C(=O)c1ccccc1-3
Streptococcus
  EC50: 31.8 µM (active)
Large T antigen
  IC50: > 100 µM (active)
[5]
  IC50: > 20 µM (inactive)
Fibrinogen beta chain [6]
  IC50: > 83.3 µM (inactive)
[7]
  IC50: > 128 µM (inactive)
Streptokinase A
  EC50: > 150 µM (not active)
[8]
  AC50: 14.8 µM (active)
Fibrinogen beta chain [9]
  IC50: 4.96 µM (active)
[4]
  EC50: 5.52 µM (active)

## O=C1NC(=S)/C(=C\c2ccc(-c3ccccc3Cl)o2)S1
Streptococcus
  EC50: 28.2 µM (active)
[10]
  EC50: > 300 µM (not active)
[11]
  IC50: 3.31 µM (active)
Streptokinase A
  EC50: 14.7 µM (active)
[12]
  IC50: 194 µM (active)
[13]
  EC50: > 300 µM (not active)
[4]
  EC50: 3.42 µM (active)

## c1cc2c(cc1Cn1cnnn1)OCO2
[14]
  IC50: > 100 µM (not active)

## O=C(O)C1=NN(c2cc(Cl)c(S(=O)(=O)O)cc2Cl)C(=O)C1
ELAV-like protein 1
  IC50: 16.7 µM (inactive)
